According to US9359373B1, “Lipophilic N-substituted norcantharimide derivatives and uses thereof” (priority 2014, dated 2016):
Read-outs that look alike come from different tables or passages of the source.

How the values were obtained:
BFTC905 = assay: MTT cell viability, BFTC905; format: cell-based, human; settings: Mean ± SD, read-out: Growth Inhibition IC50 BFTC905
Protocol: (§1) Cell lines used in the present disclosure include human liver carcinonoma cell line HepG2, human bladder carcinoma cell line BFTC905, human colon carcinoma cell lines HT29 and SW480, and human leukemia cell lines HL60 and Jurkat T, and mouse lymphocytic leukemia cell line L1210. Each cell lines were cultured and maintained in Dulbecco's modified Eagle media (DMEM) or RPMI 1640 medium supplemented with 10% heat inactivated fetal bovine serum (FBS), 1% penicillin/streptomycin, in 5% CO2195% air at 37° C.
(§2) The absorbance of the solution at 540 nm was measured by spectrophotometer. The IC50 values were defined as the drug concentration that inhibit 50% cell growth by setting the viability of untreated cells as 100%. Values were represented as the mean±SD from at least 3 independent experiments.
(§3) Effects of the compounds of formula (I) of this disclosure, specifically, NOC15 and NC 15, on HepG2 cells (liver carcinoma), BFTC905 (bladder carcinoma), HT29 (colon carcinoma), SW480 (colon carcinoma) and HL60 (leukemia) were assessed by cell viability analysis in accordance with procedures described above, in which compound 2, and other known anti-cancer agents including 5-FU, cisplatin and doxorubicin were respectively used as positive controls.

HL60 = assay: MTT cell viability, HL60; format: cell-based, human; settings: for IC50: MTT, 48 hours, Mean ± SD, read-out: Growth Inhibition IC50 HL-60; for response of leukemia cell line HL60 to treatment: in words, from Table 1
Protocol: as §1, §2, §3

HepG2 cells [1] = assay: Apoptotic analysis annexin-V/PI flow cytometry; format: cell-based, human; settings: 10-60 μM, 48 hours, FIG. 3
Protocol: The percentage of apototic cells was determined according to the manufacturer's protocol by using an annexin-V/FITC kit/propidium iodine (PI) flow cytometer. To facilitate the detection of apoptosis, the treated cells were centrifuged for 5 min at a speed of 1,000×g at room temperature, and then resuspended and washed once with 5 mL PBS before being stained with annexin-V/PI (apoptosis detection kit, R&D Systems, Taipei, Taiwan).
(§4) HepG2 cells were treated with 10-60 μM of the test compounds for 48 hours, then cell cycle distribution and apoptosis analysis was analyzed by flow cytometry, with the subG1 phase being stained with propidium idoine (PI). Results are illustrated in FIGS. 2 and 3.

HT29 = assay: MTT cell viability, HT29; format: cell-based, human; settings: Mean ± SD, read-out: Growth Inhibition IC50 HT-29
Protocol: as §1, §2, §3

[2] = system: human lymphoblast cells (NHL); assay: Cell viability (CCK-8), normal lymphoblast cells; format: cell-based; settings: 24 hours (NC15: 24 and 48 hours), FIG. 4, FIG. 6
Protocol: (§5) The cell viability assays were performed in 96-well plates. The 100 μl of cell suspensions (NHL or Jurkat T cells, 5×10^3 cells/well, serum-free medium) were inoculated in the wells and the plates were pre-incubated in the incubator for 24 hours (pre-incubated for 22 hours and stimulated with PMA 5 ng/ml plus ionomycin 250 ng/ml for 2 hours in PMAI-treated groups). Then, various concentrations of norcantharidin (0, 2, 4, 15, 30 and 60 μM) or NOC15 (0, 0.25, 0.5, 1, 2 and 4 μM) were added into the culture media in the wells. After 24 hours of incubation, the cell viability of NHL and Jurkat T cells was measured by cell counting kit-8 (CCK-8, Sigma). The half maximal inhibitory concentrations (IC50) of norcantharidin and NOC15 on Jurkat T cells and NHL cells were calculated.
(§6) In this example, a model of phorbol 12-myristate 13-acetate plus ionomycin (PMAI) activated leukemia Jurkat T cells model was employed to investigate the effects of the NOC15 on human leukemia cells (Jurkat T cells) and human lymphoblast cells (NHL).

[3] = system: human leukemia cells (Jurkat T cells); assay: Cell viability (CCK-8), PMAI activated leukemia Jurkat T cells model; format: cell-based
Protocol: as §5, §6

HepG2 cells [4] = assay: MTT cell viability, HepG2; format: cell-based, human
Protocol: as §1, §2, §3
In this example, effects of NOC15 or NC15 on HepG2 cells were assessed by cell viability analysis in accordance with procedures described above, in which compound 2 was used as a positive control.

HepG2 cells [5] = assay: Cell cycle distribution by flow cytometry (PI), HepG2; format: cell-based, human; settings: 48 hours, FIG. 2
Protocol: (§7) Cultured cells with or without pre-treatment of the compounds of this invention (i.e., norcantharidin, NOC15, or NC15, 10-60 μM for 48 hours) were harvested from the cultured media and fixed by incuating with 75% iced cold ehtanol and kept at −20° C. until analysis. The fixed cells were then washed with PBS, and treated with […] (200 μg/mL, 500 μL) for about 1.5 hour at 37° C. Precipitated cells were collected by centrifugation and re-suspended in a buffer solution containing propidium iodine (PI) (40 μg/ml) and incubated in the dark for 20 min at 20-25° C. before being subject to flow cytometry analysis, where cell numbers at respective cell cycles were determined.
as §4

SW480 = assay: MTT cell viability, SW480; format: cell-based, human; settings: Mean ± SD, read-out: Growth Inhibition IC50 SW480
Protocol: as §1, §2, §3

HepG2 cells [6] = assay: Hoechst 33528 staining, nuclear morphological changes; format: cell-based, human; settings: 40 μM, 48 hours, FIG. 1
Protocol: Staining with Hoechst 33528 was performed according to the method described previously (Huang et al., Cytotechnology 2009, 59, 201-208). Briefly, cells were treated with 40 μM norcantharidin, NOC15, or NC15 for 48 hours, then washed with PBS saline and stained with Hoechst 33528 (Sigma, St. Louis, Mo., USA) at a final concentration of 10 μg/mL. The slides were examined under a fluorescence microscope. Cells with a small nucleus, a high fluorescence intensity (due to chromatin condensation) or nuclear fragmentation were considered apoptotic.
To further investigate the role of apoptosis in the cytotoxicity of NOC15 and NC15, HepG2 cells were incubated with compound 2, NOC15 and NC15, respectively, for 48 hours; then were stained with Hoechst 33528 and examined by fluorescence microscope for any topical morphological changes.

Jurkat T cells = assay: Cell cycle distribution by flow cytometry, Jurkat T cells; format: cell-based, human; settings: for percentage of cells in subG1 phase: FIG. 5, FIG. 7
Protocol: as §7
Cell cycle distribution was determined by flow cytometry as described in the “Materials and Methods” section. Results is depicted in FIG. 5.
In this example, Jurkat T cells were treated with or without NC15 (2.513 μM) for 24 or 48 hours before being subject to cell cycle analysis. Results are depicted in FIG. 7.

[7] = Body weight of treated animals; format: in vivo, mice; settings: 18 mg/Kg, compared with healthy normal control, FIG. 11
Protocol: (§8) To inoculate tumor, L1210 cells (1×10^6 cells per injection) were injected either subcutaneously or intraperitoneally to lab animals to generate tumors on day 1. After 7 days, NOC15 or NC15 (diluted in normal saline) was administered intra-peritoneally at a dose of 18 mg/kg every day for 7 days. The average body weight (BW) of the animals was measured daily.
(§9) Mice were inoculated with L1210 tumor cells in accordance with the procedures described in the section of “Materials and Methods.” For in vivo therapy, animals were given 18 mg/Kg NOC15 or NC15 by intra-peritoneal route, for a period of at least 7 days. Tumor size, animal body weight, respective weights of liver and spleen, as well as the white blood cell count of each animal were then measured respectively at the indicated time. Results are depicted in FIGS. 8 to 11, respectively.

normal hepatic cells = assay: Ex vivo growth of normal hepatic cells; format: cell-based; settings: at about 8.2 μM
L1210 cells = assay: Syngeneic L1210 tumor in vivo therapy; parameters: species or system DBA/2 mice
Protocol: The DBA/2 mice (about 7 weeks old, 18-22 g) were obtained from BioLASCO Taiwan Co., Ltd. All mice were housed in specific pathogen-free condition with ad libitum access to water and laboratory chow. A solution of L1210 cells was injected into the subcutaneous tissue to establish a syngeneic tumor. Alternatively, the L1210 cells was injected peritoneally. All animal experiments were performed in accordance with the guidelines of the Animal Welfare Committee of Taipei Veterans General Hospital (Taiwan, R.O.C.).
as §8
After treatment, mice were sacrificed, and their tumors, livers and spleens were harvested and weighted, respectively; and white blood cells (WBC) counts were also measured.
as §9

[8] = Homo sapiens, BFTC-905, 48 hours
[9] = Homo sapiens, HepG2, 24 h, Mean ± SD, read-out: Growth Inhibition On Hepatic Cancer Cells IC50 24 hrs
[10] = Homo sapiens, HepG2, 48 h, MTT, 48 hours, Mean ± SD, read-out: Growth Inhibition IC50 HepG2
[11] = Homo sapiens, HepG2, 48 h, Mean ± SD, read-out: Growth Inhibition On Hepatic Cancer Cells IC50 48 hrs
[12] = Homo sapiens, HepG2, 72 h, Mean ± SD, read-out: Growth Inhibition On Hepatic Cancer Cells IC50 72 hrs
[13] = MTT, 48 hours, Mean ± SD, read-out: Growth Inhibition IC50 HepG2

O=C1OC(=O)C2C3CCC(O3)C12 (stereo not drawn) [Compound 2, 7-oxabicyclo[2.2.1]heptane-2,3-dicarboxylic anhydride, reference compound]
IC50 (BFTC905; [8]): 18.9 ± 0.3 µM
IC50 (HL60; Homo sapiens, HL-60): > 100 µM
percentage of apoptotic cells / cell death (HepG2 cells [1]): cytoxic effect was only observed when high concentration of compound 2 was used
IC50 (HT29; Homo sapiens, HT-29, 48 hours): 19.5 ± 0.2 µM
cytotoxicity to normal lymphatic/lymphoblast cells (NHL) [2]: did not possess significant cytotoxicity
cytotoxicity to leukemia Jurkat T cells ([3]; 24 hours (NC15: 24 and 48 hours), FIG. 4, FIG. 6): toxic
percentage of viable cells if pre-treated with PMA ([3]; PMA plus ionomycin pre-treatment, FIG. 4): increased slightly
IC50 (HepG2 cells [4]; [9]): 48 ± 0.7 µM
IC50 (HepG2 cells [4]; [10]): 42 ± 1.8 µM
IC50 (HepG2 cells [4]; [11]): 42 ± 1.8 µM
IC50 (HepG2 cells [4]; [12]): 22.8 ± 0.6 µM
fraction of apoptotic cells (subG1) (HepG2 cells [5]; 10 μM): only a small fraction of apoptotic cells
fraction of apoptotic cells (subG1) (HepG2 cells [5]; 20 μM): 1.6%
fraction of apoptotic cells (subG1) (HepG2 cells [5]; 60 μM): 16.7%
IC50 (SW480; Homo sapiens, SW480, 48 hours): 49.1 ± 8.4 µM
nuclear morphological changes (apoptosis features) (HepG2 cells [6]): Significant morphological features of apotosis

CC(C)=CCCC(C)=CCCC(C)=CCON1C(=O)C2C3CCC(O3)C2C1=O (stereo not drawn) [Compound 9, N-farnesyloxy-7-oxabicyclo[2.2.1]heptane-2,3-dicarboximide]
IC50 (BFTC905; [8]): 11.3 ± 1 µM
IC50 (HL60; Homo sapiens, HL-60): 39 ± 1.1 µM
response of leukemia cell line HL60 to treatment (HL60): did respond
percentage of apoptotic cells / cell death (HepG2 cells [1]): dose-dependent
IC50 (HT29; Homo sapiens, HT-29, 48 hours): 9.7 ± 1.7 µM
percentage of cells in subG1 phase (Jurkat T cells; treated 24 hours (NC15 2.513 μM)): increased
percentage of cells in subG1 phase (Jurkat T cells; treated 48 hours (NC15 2.513 μM)): increased
percentage of cells in G2/M phase (Jurkat T cells; treated 48 hours, FIG. 5C): increased
total body weight along the course of treatment [7]: gradually improved the total body weight
effect on normal hepatic cells (normal hepatic cells): un-affected
IC50 (HepG2 cells [4]; [9]): 10.7 ± 0.2 µM
IC50 (HepG2 cells [4]; [10]): 8.3 ± 1.3 µM
IC50 (HepG2 cells [4]; [11]): 8.3 ± 1.3 µM
IC50 (HepG2 cells [4]; [12]): 8.2 ± 0.6 µM
IC50 (HepG2 cells [4]; Homo sapiens, HepG2, hepatic cancerous cells, time not given, read-out: concentration inhibiting ex vivo growth of hepatic cancerous cells for about 50%): ~8.2 µM
accumulation of cells in G2/M phase (HepG2 cells [5]; 10-60 μM): inducing the accumulation of cells in G2/M phase
IC50 (SW480; Homo sapiens, SW480, 48 hours): 18.5 ± 2.3 µM
nuclear morphological changes (apoptosis features) (HepG2 cells [6]): Significant morphological features of apotosis
weight of liver (L1210 cells; IP-inoculated tumor, 18 mg/kg i.p., FIG. 9B): improved significantly
weight of spleen (L1210 cells; IP-inoculated tumor, 18 mg/kg i.p., FIG. 9C): improved significantly
increase in life span (L1210 cells; SC-inoculated tumors, 18 mg/kg i.p. daily, FIG. 8A): about 40%
weight of s.c. tumor (L1210 cells; SC-inoculated, 18 mg/kg i.p., FIG. 9A): Significant reduction
white blood cell (WBC) counts (L1210 cells; day 14, SC- or IP-injected L1210, 18 mg/kg i.p., FIG. 10): significant reductions

N.N.[Cl][Pt][Cl] [Cisplatin, cisplatin]
IC50 (HL60): > 100 µM
response of leukemia cell line HL60 to treatment (HL60): did not respond well
IC50 (HT29; 48 hours): 24.1 ± 0.1 µM
IC50 (HepG2 cells [4]; [13]): 36.1 ± 3.1 µM
IC50 (SW480; 48 hours): 40.7 ± 1.2 µM

COc1cccc2c1C(=O)c1c(O)c3c(c(O)c1C2=O)C[C@@](O)(C(=O)CO)C[C@@H]3O[C@H]1C[C@H](N)[C@H](O)[C@H](C)O1 [Doxorubicin, doxorubicin]
IC50 (HL60; Homo sapiens, HL-60): 14.3 ± 0.9 µM
IC50 (HT29; Homo sapiens, HT-29, 48 hours): 1.7 ± 0.2 µM
IC50 (HepG2 cells [4]; [10]): 0.3 µM
IC50 (SW480; Homo sapiens, SW480, 48 hours): 0.5 ± 0.1 µM

O=c1[nH]cc(F)c(=O)[nH]1 [Compound 5-FU, 5-FU]
IC50 (BFTC905; 48 hours): > 100 µM
IC50 (HL60): > 100 µM
response of leukemia cell line HL60 to treatment (HL60): did not respond well
IC50 (HT29; 48 hours): > 100 µM
IC50 (HepG2 cells [4]; [13]): 40.2 ± 7.6 µM
IC50 (SW480; 48 hours): 32.7 ± 8.3 µM
